Patent publication US9873920B2, “Method for evaluating side-effect onset risk in anticancer drug treatment, including detecting MUC4 gene polymorphism” (SAITAMA MEDICAL UNIVERSITY, priority 2013, dated 2018)
Where two headings read alike, the source gives them in different places.

Experiments:
[1] = human, in vivo
Excerpt: It should be noted, of course, that death due to the side effect of drugs is a serious problem also in countries other than Japan, apart from its frequency.

[2] = cited from earlier work
[3] = cited from earlier work; remark: listed apart in the source

| SMILES | times higher frequency of diffuse alveolar damage in Japanese [1] | frequency of diffuse alveolar damage ([2]; in Japanese) | frequency of diffuse alveolar damage ([2]; surveys on Asians) | frequency of development of ILD in Chinese relative to Japanese ([3]; Chinese versus Japanese) | frequency of development of ILD in Westerners relative to the frequency in Japanese ([3]; Westerners versus Japanese) | frequency of development of interstitial lung disease (ILD) ([3]; in Japanese) |
| --- | --- | --- | --- | --- | --- | --- |
| C#Cc1cccc(Nc2ncnc3cc(OCCOC)c(OCCOC)cc23)c1 [erlotinib] | not less than 10 times | 2.7% | 0.2% | not more than the frequency of development in Japanese | not more than 1/10 | about 4% |
| COc1cc2ncnc(Nc3ccc(F)c(Cl)c3)c2cc1OCCCN1CCOCC1 [gefitinib] | not less than 10 times | – | – | – | – | – |
